The term pKi denotes the negative decadic logarithm of the Ki, by convention in mol/L. The term pIC50 denotes the IC50 on a negative log10 scale, so that one unit is a factor of ten.

SMILES strings stand for the structures. pIC50, pKi: −log10 of the molar value.

The record followed here is patent US20180265515A1 (Genentech, Inc., priority 2015, published 2018).

In test [1] the target is T1, isolated recombinant JAK1 kinase domain (Homo sapiens, UniProt P23458).
T1 construct: The activity of the isolated recombinant JAK1 and JAK2 kinase domain was measured
The test can be described thus: JAK1 enzyme assay (Caliper LabChip, Ki). It is filed as biochemical. The settings on record: 25 μM ATP. The method, boiled down:
(§1)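 Recombinant JAK1 or JAK2 kinase domain phosphorylating a 5-carboxyfluorescein-labelled JAK3-derived peptide, 30 min at 22° C, stopped with EDTA. Phosphorylated fraction of substrate quantified by Caliper LabChip microfluidic separation. Ki from Morrison tight-binding model corrected for ATP competition (Ki=Ki,app/(1+[ATP]/Km,app)).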

Test [2] has as its target LRRK2 (Homo sapiens, UniProt Q5S007). The experiment in a line: LRRK2 assay (Life Technologies Adapta, SelectScreen Profiling, IC50). The test is classed as biochemical. Particulars: for pIC50: 75 μM ATP, 10-point curves, read-out: LRRK 2 IC50; for Ratio (LRRK 2 IC50: JAK1 Ki): selectivity ratio LRRK2 IC50 over JAK1 Ki; for selectivity for JAK1 over LRRK2 (in words): 5-sulfanylphenyl compound compared with 5-chlorophenyl matched pair.

For test [3], the target named is T2, isolated recombinant JAK2 kinase domain (Homo sapiens, UniProt O60674).
T2 construct: The activity of the isolated recombinant JAK1 and JAK2 kinase domain was measured
The experiment in a line: JAK2 enzyme assay (Caliper LabChip, Ki). The test is classed as biochemical. The settings on record: 25 μM ATP. The method, boiled down: as §1

For test [4], the system named is JAK1-dependent STAT6 phosphorylation downstream of IL-13 stimulation in BEAS-2B human bronchial epithelial cells. The experiment in a line: JAK1 pathway assay in BEAS-2B cells (IL-13 stimulated STAT6 phosphorylation, MSD). It is filed as cell-based. The settings on record: read-out: P-STAT6 BEAS2B + IL13 IC50. The method, boiled down:
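BEAS-2B human bronchial epithelial cells, plated the day before in complete growth medium, were preincubated with compound for 1 hr at 37° C (0.2% DMSO final), then stimulated with IL-13 at its EC90 for 15 min. STAT6 phosphorylation in lysates was read by MSD; EC50 was taken as 50% inhibition versus DMSO control.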

LRRK2, sequence (Q5S007 970-2527 limits assumed): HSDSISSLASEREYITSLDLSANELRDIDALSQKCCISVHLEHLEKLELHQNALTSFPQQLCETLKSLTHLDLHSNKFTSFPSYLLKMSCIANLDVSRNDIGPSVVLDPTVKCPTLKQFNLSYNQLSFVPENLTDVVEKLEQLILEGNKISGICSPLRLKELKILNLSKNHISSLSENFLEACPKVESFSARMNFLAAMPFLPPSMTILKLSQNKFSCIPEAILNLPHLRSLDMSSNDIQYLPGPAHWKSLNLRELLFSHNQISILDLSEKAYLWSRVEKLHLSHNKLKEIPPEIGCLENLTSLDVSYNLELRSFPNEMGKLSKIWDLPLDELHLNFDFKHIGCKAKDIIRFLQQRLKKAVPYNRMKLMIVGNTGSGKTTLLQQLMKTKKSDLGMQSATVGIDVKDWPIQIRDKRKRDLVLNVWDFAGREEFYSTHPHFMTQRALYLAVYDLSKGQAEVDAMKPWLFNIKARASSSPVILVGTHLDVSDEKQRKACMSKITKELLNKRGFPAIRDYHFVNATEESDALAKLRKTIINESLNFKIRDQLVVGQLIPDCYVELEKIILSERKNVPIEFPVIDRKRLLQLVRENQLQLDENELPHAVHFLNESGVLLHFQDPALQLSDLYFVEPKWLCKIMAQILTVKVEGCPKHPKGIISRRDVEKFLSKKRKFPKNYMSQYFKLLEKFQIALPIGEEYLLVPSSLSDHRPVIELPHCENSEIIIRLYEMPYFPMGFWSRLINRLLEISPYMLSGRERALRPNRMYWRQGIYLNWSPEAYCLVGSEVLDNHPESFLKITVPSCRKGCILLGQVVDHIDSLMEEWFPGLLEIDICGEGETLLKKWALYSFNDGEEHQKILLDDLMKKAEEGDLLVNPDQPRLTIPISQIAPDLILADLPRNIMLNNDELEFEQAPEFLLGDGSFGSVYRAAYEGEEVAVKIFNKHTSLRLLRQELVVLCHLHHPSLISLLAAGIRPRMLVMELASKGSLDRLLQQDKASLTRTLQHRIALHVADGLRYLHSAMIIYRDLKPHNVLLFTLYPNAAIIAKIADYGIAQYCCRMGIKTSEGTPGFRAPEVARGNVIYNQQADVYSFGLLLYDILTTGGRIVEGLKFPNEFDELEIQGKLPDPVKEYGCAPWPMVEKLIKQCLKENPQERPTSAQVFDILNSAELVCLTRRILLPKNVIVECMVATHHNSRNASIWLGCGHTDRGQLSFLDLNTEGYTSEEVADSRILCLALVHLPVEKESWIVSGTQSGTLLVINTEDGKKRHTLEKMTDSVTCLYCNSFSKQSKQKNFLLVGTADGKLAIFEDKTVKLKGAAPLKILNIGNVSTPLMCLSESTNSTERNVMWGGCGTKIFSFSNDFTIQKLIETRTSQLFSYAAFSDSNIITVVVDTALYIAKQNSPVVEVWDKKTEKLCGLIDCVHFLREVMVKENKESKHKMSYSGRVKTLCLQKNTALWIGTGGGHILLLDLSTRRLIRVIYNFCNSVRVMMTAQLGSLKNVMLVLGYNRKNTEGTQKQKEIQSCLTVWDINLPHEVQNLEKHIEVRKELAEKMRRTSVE
T2 sequence (O60674 849-1124 limits assumed): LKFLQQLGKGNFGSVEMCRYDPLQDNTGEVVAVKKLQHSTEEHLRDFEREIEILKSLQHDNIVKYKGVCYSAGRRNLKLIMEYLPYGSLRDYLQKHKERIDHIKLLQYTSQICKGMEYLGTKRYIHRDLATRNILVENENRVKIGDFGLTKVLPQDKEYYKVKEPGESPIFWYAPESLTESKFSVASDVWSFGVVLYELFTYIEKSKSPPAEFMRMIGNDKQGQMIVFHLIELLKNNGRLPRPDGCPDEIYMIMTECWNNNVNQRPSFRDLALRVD
T1 sequence (P23458 875-1153 limits assumed): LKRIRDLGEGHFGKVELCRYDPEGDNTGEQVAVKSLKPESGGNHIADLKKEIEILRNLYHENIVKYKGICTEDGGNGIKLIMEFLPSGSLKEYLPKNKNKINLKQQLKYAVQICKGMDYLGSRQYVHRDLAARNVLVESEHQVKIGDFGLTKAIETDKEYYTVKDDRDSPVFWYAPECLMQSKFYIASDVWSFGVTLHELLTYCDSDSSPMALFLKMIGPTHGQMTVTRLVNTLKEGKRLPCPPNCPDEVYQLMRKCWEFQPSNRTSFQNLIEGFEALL

As to `Cn1cc(NC(=O)c2cnn3cccnc23)c(-c2cc(Cl)ccc2OC(F)F)n1` [A, reference compound], the pKi in test [1] (Morrison tight binding model) is 9.74. Also, in test [2], the pIC50 was 7.09 and the “Ratio (LRRK 2 IC50: JAK1 Ki)” value came out at 449.
As to `CC(C)(O)Cn1cc(NC(=O)c2cnn3cccnc23)c(-c2cc(Cl)ccc2OC(F)F)n1` [B, reference compound], the pKi in test [1] (Morrison tight binding model) is 9.40. For the same compound, in test [2], the pIC50 is 6.37 and the “Ratio (LRRK 2 IC50: JAK1 Ki)” value is listed as 1078.
The matching figures for `O=C(Nc1cn(C2CCOCC2)nc1-c1cc(Cl)ccc1OC(F)F)c1cnn2cccnc12` [C, reference compound]: 9.16, 5.99 and 1493.
Take `CSc1ccc(OC(F)F)c(-c2nn(C)cc2NC(=O)c2cnn3cccnc23)c1` [D]: in test [1] (Morrison tight binding model), the pKi is 9.89. Further, in test [2], the pIC50 is 6.71, the “selectivity for JAK1 over LRRK2 (in words)” value (“selectivity for JAK1” for short) is “greater selectivity for JAK1 over LRRK2 than their 5-chlorophenyl matched pair A” and the “Ratio (LRRK 2 IC50: JAK1 Ki)” value is 1485.
For `CC(C)Sc1ccc(OC(F)F)c(-c2nn(C)cc2NC(=O)c2cnn3cccnc23)c1` [E], the pKi in test [1] (Morrison tight binding model) is 9.60. Also, in test [2], the pIC50 is 5.65, the “selectivity for JAK1” value is given as “greater selectivity for JAK1 over LRRK2 than their 5-chlorophenyl matched pair A” and the “Ratio (LRRK 2 IC50: JAK1 Ki)” value worked out at 8880.
For `O=C(Nc1cn(CC(=O)N2CCN(CC3CCOCC3)CC2)nc1-c1cc(SC2COC2)ccc1OC(F)F)c1cnn2cccnc12` [Example 188, N-[3-[2-(difluoromethoxy)-5-(oxetan-3-ylsulfanyl)phenyl]-1-[2-oxo-2-[4-(tetrahydropyran-4-ylmethyl)piperazin-1-yl]ethyl]pyrazol-4-yl]pyrazolo[1,5-a]pyrimidine-3-carboxamide], the pKi in test [1] (recombinant JAK1 kinase domain) is 9.21; in test [3], 8.89. In addition, the pIC50 in test [4] was 7.32.
The matching figures for `N#CC1(CNC2CCN(C(=O)Cn3cc(NC(=O)c4cnn5cccnc45)c(-c4cc(SC5COC5)ccc4OC(F)F)n3)CC2)CC1` [Example 189, N-[1-[2-[4-[(1-cyanocyclopropyl)methylamino]-1-piperidyl]-2-oxo-ethyl]-3-[2-(difluoromethoxy)-5-(oxetan-3-ylsulfanyl)phenyl]pyrazol-4-yl]pyrazolo[1,5-a]pyrimidine-3-carboxamide]: 9.00, 8.52 and 6.11.
In the case of `CN1CCN(C2CCN(C(=O)Cn3cc(NC(=O)c4cnn5cccnc45)c(-c4cc(SC5COC5)ccc4OC(F)F)n3)CC2)CC1` [Example 190, N-[3-[2-(difluoromethoxy)-5-(oxetan-3-ylsulfanyl)phenyl]-1-[2-[4-(4-methylpiperazin-1-yl)-1-piperidyl]-2-oxo-ethyl]pyrazol-4-yl]pyrazolo[1,5-a]pyrimidine-3-carboxamide], the pKi was 8.96 in test [1] (recombinant JAK1 kinase domain) and 8.42 in test [3]. The pIC50 in test [4] was 6.77.
The corresponding values for `COC(=O)N1CCN(CC2CCN(C(=O)Cn3cc(NC(=O)c4cnn5cccnc45)c(-c4cc(SC5COC5)ccc4OC(F)F)n3)CC2)CC1` [Example 191, methyl 4-[[1-[2-[3-[2-(difluoromethoxy)-5-(oxetan-3-ylsulfanyl)phenyl]-4-(pyrazolo[1,5-a]pyrimidine-3-carbonylamino)pyrazol-1-yl]acetyl]-4-piperidyl]methyl]piperazine-1-carboxylate] are 9.36, 9.00 and 7.31.
The matching figures for `CCSc1ccc(OC(F)F)c(-c2n[nH]cc2NC(=O)c2cnn3cccnc23)c1` [Example 192, N-[3-[2-(difluoromethoxy)-5-ethylsulfanyl-phenyl]-1H-pyrazol-4-yl]pyrazolo[1,5-a]pyrimidine-3-carboxamide]: 9.92, 10.26 and 8.70.
In the case of `CCSc1ccc(OC(F)F)c(-c2nn(CC(=O)N3CCC(N4CCOCC4)CC3)cc2NC(=O)c2cnn3cccnc23)c1` [Example 193], the pKi was 9.44 in test [1] (recombinant JAK1 kinase domain) and 9.24 in test [3]. The pIC50 in test [4] was 7.77.
In the case of `CCSc1ccc(OC(F)F)c(-c2nn(CC(=O)N3CCC(N(C)CCC#N)CC3)cc2NC(=O)c2cnn3cccnc23)c1` [Example 194, N-[1-[2-[4-[2-cyanoethyl(methyl)amino]-1-piperidyl]-2-oxo-ethyl]-3-[2-(difluoromethoxy)-5-ethylsulfanyl-phenyl]pyrazol-4-yl]pyrazolo[1,5-a]pyrimidine-3-carboxamide], the pKi in test [1] (recombinant JAK1 kinase domain) was 9.51; in test [3], 9.20. Also, the pIC50 in test [4] is 7.60.
As for `Cn1cc(NC(=O)c2cnn3cccnc23)c(-c2cc(SC3COC3)ccc2OC(F)F)n1` [F], the pKi in test [1] (Morrison tight binding model) was 9.54. Also, in test [2], the “selectivity for JAK1” value is on record as “greater selectivity for JAK1 over LRRK2 than their 5-chlorophenyl matched pair A”.
The corresponding values for `Cn1cc(NC(=O)c2cnn3cccnc23)c(-c2cc(SC(CF)CF)ccc2OC(F)F)n1` [G] are 9.80 and “greater selectivity for JAK1 over LRRK2 than their 5-chlorophenyl matched pair A”.
Turning to `CSc1ccc(OC(F)F)c(-c2nn(CC(C)(C)O)cc2NC(=O)c2cnn3cccnc23)c1` [H], the “selectivity for JAK1” value in test [2] is reported as “greater selectivity for JAK1 over LRRK2 than its 5-chlorophenyl matched pair B”.
`CSc1ccc(OC(F)F)c(-c2nn(C3CCOCC3)cc2NC(=O)c2cnn3cccnc23)c1` [I]: in test [1] (Morrison tight binding model), the pKi was 9.17. In test [2], the “selectivity for JAK1” value is “greater selectivity for JAK1 over LRRK2 than its 5-chlorophenyl matched pair C”.
As for `COC(=O)N1CCN(CC2CCN(C(=O)Cn3cc(NC(=O)c4cnn5cccnc45)c(-c4cc(SC)ccc4OC(F)F)n3)CC2)CC1` [J], the pKi in test [1] (Morrison tight binding model) is 9.52. Further, in test [2], the pIC50 is 5.61, the “selectivity for JAK1” value is listed as “high degree of JAK1 over LRRK2 selectivity” and the “Ratio (LRRK 2 IC50: JAK1 Ki)” value worked out at 8167.
`CSc1ccc(OC(F)F)c(-c2nn(CC(=O)N3CCC(N4CCC[C@@H](C#N)C4)CC3)cc2NC(=O)c2cnn3cccnc23)c1` [K]: in test [1] (Morrison tight binding model), the pKi was 9.70. In test [2], the pIC50 is 5.77, the “selectivity for JAK1” value is recorded as “high degree of JAK1 over LRRK2 selectivity” and the “Ratio (LRRK 2 IC50: JAK1 Ki)” value is reported as 8500.
As to `CSc1ccc(OC(F)F)c(-c2nn(CC(=O)N3CCC(CN4CCN(CC(=O)N(C)C)CC4)CC3)cc2NC(=O)c2cnn3cccnc23)c1` [L], the pKi in test [1] (Morrison tight binding model) is 9.51. Moreover, in test [2], the pIC50 was 5.70, the “selectivity for JAK1” value is on record as “high degree of JAK1 over LRRK2 selectivity” and the “Ratio (LRRK 2 IC50: JAK1 Ki)” value came to 6453.
The corresponding values for `CSc1ccc(OC(F)F)c(-c2nn(CC(=O)N3CCC(NCC(C)(C)C#N)CC3)cc2NC(=O)c2cnn3cccnc23)c1` [M] are 9.70, 5.47, “high degree of JAK1 over LRRK2 selectivity” and 16750.
In the case of `CSc1ccc(OC(F)F)c(-c2nn(CC(=O)N3CCC(N4CCOCC4)CC3)cc2NC(=O)c2cnn3cccnc23)c1` [N], the negative logarithm of the Ki (pKi) in test [1] (Morrison tight binding model) was 9.54. Besides, in test [2], the pIC50 is 5.73, the “selectivity for JAK1” value was “high degree of JAK1 over LRRK2 selectivity” and the “Ratio (LRRK 2 IC50: JAK1 Ki)” value is recorded as 6379.
